Values quoted from earlier work in patent publication US4307083A, “LRF Antagonists” (The Salk Institute for Biological Studies, priority 1980, dated 1981).
Non-standard residues stand in square brackets, D forms with d. pGlu = O=C1CC[C@@H](C(=O)O)N1

Test system: release of gonadotropins
Conditions: versus des-His2 peptide with Gly instead of D-Ala at position 6

## [pGlu]WSY[dA]LRPG-NH2
  Potency as inhibitor of gonadotropin release relative to the same peptide with Gly in the 6-position: 3 times
